This note sets out measurements from PubChem BioAssay (NCI).

Each structure is given as a SMILES string.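 These data come from cells grown in 96-well plates and exposed to compound for 48 hours at five concentrations. At the GI50, growth is halved. TGI is the concentration that stops growth completely.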

In one assay the test system is SK-OV-3 ovarian. The experiment in a line: NCI anticancer screen, dose series, 48 h.
Turning to `N#C/C(=C\c1cc(Br)c(O)c(Br)c1)c1cccnc1`, the TGI is more than 100 µM.

A further assay relates to CCRF-CEM leukemia. The experiment in a line: NCI anticancer screen, dose series, 48 h.
On to `CC(=O)O[C@]12CCCCCC1C1(O)C(O)CCC[C@H]12` (stereo partly drawn), for which the TGI is more than 100 µM.

In the case of `COCOc1ccc(Cn2c(=O)n(C)c(=O)c3c2ncn3C)cc1[N+](=O)[O-]`, the TGI is more than 100 µM.

Compound `BrC/C=C/C[P+](c1ccccc1)(c1ccccc1)c1ccccc1` had a TGI of more than 100 µM.

For the compound `Cc1cc(=O)c2c([nH]1)NS(=O)(=O)NC2=O`, the TGI is more than 100 µM.

`COc1cc([N+](=O)[O-])c(OC)cc1-c1nc2sc(Cl)cn2c1/C=N/Nc1ccccn1`: the GI50 was more than 50 µM and the TGI was more than 50 µM.

In turn, `COc1ccc2nc3cc(Cl)ccc3c(NCCCNCCCNc3c4ccc(Cl)cc4nc4ccc(OC)cc34)c2c1` displayed a TGI of 14.8 µM.

Turning to `C=CCNC(=S)/N=C/c1c(O)c2ccccc2oc1=O`, the TGI was more than 100 µM.

As to `CC(=O)N(C(C)=O)C1=C2c3ccccc3N(S(=O)(=O)c3ccccc3)C2n2c(=O)n(-c3ccccc3)c(=O)n2C1` (stereo not drawn), the TGI is more than 100 µM.

`O=C(NC(Cc1ccc(I)cc1)C(=O)O)c1ccc(I)cc1` (stereo not drawn) had a TGI of more than 100 µM.

The compound `O=c1ccc2cc3ccc4cccc5ccc(c2o1)c3c45` registered a TGI of more than 100 µM.

The compound `O=S(=O)(O)c1cc2ccc1/C=C\c1ccc(cc1S(=O)(=O)O)N=Nc1ccc(c(S(=O)(=O)O)c1)/C=C\c1ccc(cc1S(=O)(=O)O)N=N2` came in with a TGI of more than 100 µM.

Compound `N#C/C(=C\c1cc(Br)c(O)c(Br)c1)c1cccnc1` showed a TGI of more than 100 µM.

Another assay has as its system NCI/ADR-RES ovarian. The experiment in a line: NCI anticancer screen, dose series, 48 h.
For the compound `Cc1c(S(=O)(=O)/N=C(\N)Nc2ccc(Cl)cc2)sc2ccc(Cl)cc12`, the TGI came out at 47.1 µM.

Turning to `COc1ccc2nc3cc(Cl)ccc3c(NCCCNCCCNc3c4ccc(Cl)cc4nc4ccc(OC)cc34)c2c1`, the TGI is more than 22.8 µM.

`O=C(NC(Cc1ccc(I)cc1)C(=O)O)c1ccc(I)cc1` (stereo not drawn): the TGI was more than 100 µM.

`O=S(=O)(O)c1cc2ccc1/C=C\c1ccc(cc1S(=O)(=O)O)N=Nc1ccc(c(S(=O)(=O)O)c1)/C=C\c1ccc(cc1S(=O)(=O)O)N=N2`: the TGI is more than 100 µM.

As to `N#C/C(=C\c1cc(Br)c(O)c(Br)c1)c1cccnc1`, the TGI turned out to be 59.1 µM.

The test system of a further assay is OVCAR-3 ovarian. Description: NCI anticancer screen, dose series, 48 h.
With `COCOc1ccc(Cn2c(=O)n(C)c(=O)c3c2ncn3C)cc1[N+](=O)[O-]`, the TGI is more than 100 µM.

With `Cc1c(S(=O)(=O)/N=C(\N)Nc2ccc(Cl)cc2)sc2ccc(Cl)cc12`, the TGI is 36.5 µM.

The compound `BrC/C=C/C[P+](c1ccccc1)(c1ccccc1)c1ccccc1` showed a TGI of 58.7 µM.

For the compound `Cc1cc(=O)c2c([nH]1)NS(=O)(=O)NC2=O`, the TGI was more than 100 µM.

The compound `COc1ccc2nc3cc(Cl)ccc3c(NCCCNCCCNc3c4ccc(Cl)cc4nc4ccc(OC)cc34)c2c1` displayed a TGI of 0.61 µM.

Regarding `C=CCNC(=S)/N=C/c1c(O)c2ccccc2oc1=O`, the TGI was more than 100 µM.

As to `CC(=O)N(C(C)=O)C1=C2c3ccccc3N(S(=O)(=O)c3ccccc3)C2n2c(=O)n(-c3ccccc3)c(=O)n2C1` (stereo not drawn), the TGI was determined as 81.9 µM.

Regarding `O=C(NC(Cc1ccc(I)cc1)C(=O)O)c1ccc(I)cc1` (stereo not drawn), the TGI stood at 97.4 µM.

`O=S(=O)(O)c1cc2ccc1/C=C\c1ccc(cc1S(=O)(=O)O)N=Nc1ccc(c(S(=O)(=O)O)c1)/C=C\c1ccc(cc1S(=O)(=O)O)N=N2` gave a TGI of more than 100 µM.

Compound `N#C/C(=C\c1cc(Br)c(O)c(Br)c1)c1cccnc1` displayed a TGI of 44 µM.

The test system of a further assay is COLO 205 colon. The experiment in a line: NCI anticancer screen, dose series, 48 h.
`CC(=O)O[C@]12CCCCCC1C1(O)C(O)CCC[C@H]12` (stereo partly drawn): the TGI was more than 100 µM.

In the case of `COCOc1ccc(Cn2c(=O)n(C)c(=O)c3c2ncn3C)cc1[N+](=O)[O-]`, the TGI was more than 100 µM.

`Cc1c(S(=O)(=O)/N=C(\N)Nc2ccc(Cl)cc2)sc2ccc(Cl)cc12` had a TGI of 45.9 µM.

Consider `BrC/C=C/C[P+](c1ccccc1)(c1ccccc1)c1ccccc1`, for which the TGI stood at 16.1 µM.

`Cc1cc(=O)c2c([nH]1)NS(=O)(=O)NC2=O` showed a TGI of more than 100 µM.

Consider `COc1cc([N+](=O)[O-])c(OC)cc1-c1nc2sc(Cl)cn2c1/C=N/Nc1ccccn1`, for which the GI50 was more than 50 µM and the TGI is more than 50 µM.

`COc1ccc2nc3cc(Cl)ccc3c(NCCCNCCCNc3c4ccc(Cl)cc4nc4ccc(OC)cc34)c2c1` registered a TGI of 0.158 µM.

Turning to `C=CCNC(=S)/N=C/c1c(O)c2ccccc2oc1=O`, the TGI is more than 100 µM.

As for `CC(=O)N(C(C)=O)C1=C2c3ccccc3N(S(=O)(=O)c3ccccc3)C2n2c(=O)n(-c3ccccc3)c(=O)n2C1` (stereo not drawn), the TGI was 80.2 µM.

`O=C(NC(Cc1ccc(I)cc1)C(=O)O)c1ccc(I)cc1` (stereo not drawn) yielded a TGI of more than 100 µM.

For the compound `O=c1ccc2cc3ccc4cccc5ccc(c2o1)c3c45`, the TGI was more than 100 µM.

`O=S(=O)(O)c1cc2ccc1/C=C\c1ccc(cc1S(=O)(=O)O)N=Nc1ccc(c(S(=O)(=O)O)c1)/C=C\c1ccc(cc1S(=O)(=O)O)N=N2` gave a TGI of more than 100 µM.

Consider `N#C/C(=C\c1cc(Br)c(O)c(Br)c1)c1cccnc1`, for which the TGI was more than 100 µM.

The next assay deals with MDA-MB-435. The experiment in a line: NCI anticancer screen, dose series, 48 h.
For the compound `COc1cc([N+](=O)[O-])c(OC)cc1-c1nc2sc(Cl)cn2c1/C=N/Nc1ccccn1`, the GI50 is more than 50 µM and the TGI was more than 50 µM.

The subject of another assay is OVCAR-4 ovarian. Description: NCI anticancer screen, dose series, 48 h.
Compound `CC(=O)O[C@]12CCCCCC1C1(O)C(O)CCC[C@H]12` (stereo partly drawn) came in with a TGI of more than 100 µM.

`Cc1c(S(=O)(=O)/N=C(\N)Nc2ccc(Cl)cc2)sc2ccc(Cl)cc12` yielded a TGI of 68.8 µM.

In the case of `BrC/C=C/C[P+](c1ccccc1)(c1ccccc1)c1ccccc1`, the TGI was more than 100 µM.

`Cc1cc(=O)c2c([nH]1)NS(=O)(=O)NC2=O`: the TGI was more than 100 µM.

`C=CCNC(=S)/N=C/c1c(O)c2ccccc2oc1=O` showed a TGI of more than 100 µM.

Turning to `O=C(NC(Cc1ccc(I)cc1)C(=O)O)c1ccc(I)cc1` (stereo not drawn), the TGI was more than 100 µM.

Compound `O=S(=O)(O)c1cc2ccc1/C=C\c1ccc(cc1S(=O)(=O)O)N=Nc1ccc(c(S(=O)(=O)O)c1)/C=C\c1ccc(cc1S(=O)(=O)O)N=N2` showed a TGI of more than 100 µM.

As to `N#C/C(=C\c1cc(Br)c(O)c(Br)c1)c1cccnc1`, the TGI is more than 100 µM.
